According to patent publication US9937260B2, “Curcumin conjugates for treating and preventing cancers” (BOARD OF SUPERVISORS OF LOUISIANA STATE UNIVERSITY AND …, priority 2008, dated 2018):
Non-standard residues stand in square brackets, D forms with d. Residues, ends and D or L forms follow the SMILES beside them. pGlu = O=C1CC[C@@H](C(=O)O)N1

Experiments:
[1] = test system: advanced pancreatic cancer; conditions: cited from earlier work
[2] = test system: MIAPaCa-2, BxPC-3 and PANC-1 pancreatic cancer cells; assay: Modified MTT cytotoxicity assay; assay type: cell-based, human
Protocol: Pancreatic cell lines MIAPaCa-2, BxPC-3, and PANC-1 were obtained from the American Type Culture Collection. All cell lines were cultured in DMEM supplemented with 10% FBS, 100 units/mL penicillin, and 100 μg/mL streptomycin. The presence and location of LHRH-receptors in these pancreatic cancer cell lines was determined by immunochemical methods.
The cytotoxicity of the peptides was determined with a modified MTT (3-(4, 5-dimethylthiazol-2-yl)-2, 5-diphenyltetrazolium bromide) assay. Briefly, MIAPaCa-2, BxPC-3 and PANG-1 cells (2000/well) were separately incubated in 96-well plates in triplicate in a cell growth medium with different concentrations of LHRH, LHRH-Curcumin, Curcumin, and LHRH-Phor21. Three wells served as controls, each receiving an equivalent volume of medium. After 24 hours, an MTT solution (5 mg/ml in PBS) was added to each well and incubated for 2 hours at 37° C., followed by extraction with buffer (20% SDS and 50% dimethylformamide). The cells were incubated overnight at 37° C. Optical absorbance of the cell suspension was then measured at 590 nm using an MRX Revelation 96-well multiscanner (Dynex Technologies, Chantilly, Va.). From these measurements the IC50 doses of the peptides were calculated. […] Values given are mean±SD of triplicate cultures.

[3] = test system: luciferase-transfected MIAPaCa-2 xenograft tumors; assay: Human pancreatic cancer xenograft in female athymic nude mice; assay type: in vivo
Description: MIAPaCa-2, a cell line expressing the LHRH receptor, was then used for in vivo experiments. We stably transfected MIAPaCa-2 cells with a gene encoding luciferase. We used the transfected cells to produce a pancreatic cancer xenograft mouse model.
Forty-eight female nude mice (athymic Balb/c, 4-5 weeks old) were obtained from a commercial vendor (Charles River Laboratories, Wilmington, Mass.), and caged individually in a room maintained at constant temperature and humidity under a 12-h light and darkness cycle, and fed a regular, autoclaved chow diet with water ad libitum. […]
After the tumors were established (100-250 mm^3), the 48 mice were randomized into six different treatment groups (n=8 mice per group): (1) LHRH alone, (2) LHRH-Curcumin, (3) LHRH-Phor21, (4) unconjugated LHRH and Phor21, (5) vehicle control, and (6) a control group of tumor-bearing mice that were necropsied before treatment (baseline controls). […] Tumor volumes and mice body weights were measured twice weekly, and mice were necropsied one week after the last treatment. At necropsy, tumors, ovaries, kidneys, pancreases, lungs, spleen, several bones, and liver were removed and weighed, and metastastic cell numbers were measured by luciferase assay. The tumor volumes and weights were analyzed by one-way ANOVA, and compared among groups using an unpaired Student's t-test. […]

caspase-3/7 = assay: Apo-ONE homogenous caspase-3/7 assay in MIAPaCa-2 cells; assay type: cell-based, human; conditions: 5 μM, 24 hours, p<0.05, FIG. 6
Protocol: We also directly measured the effect of LHRH-curcumin on caspase 3 enzyme activity with the Apo-ONE homogenous caspase-3/7 assay kit (Promega, Madison, Wis.). This assay uses a profluorescent substrate with an optimized, bifunctional cell lysis/activity buffer. MIAPaCa-2 cells were treated in triplicate (10,000 cells per well) with the free peptide LHRH, or with the LHRH-Curcumin conjugate, in each case at a 5 μM concentration, and incubated for 24 hours. Following the 24 hour incubation, the Apo-ONE homogenous caspase-3/7 assay was performed according to the manufacturer's protocol. The buffer and 100 μL Apo-ONE caspase-3/7 assay reagent were mixed and added to the samples. Cells were then incubated for an additional hour prior to fluorescence measurements. Upon sequential cleavage and removal of the Asp-Glu-Val-Asp peptide (SEQ ID NO. 10) by caspase-3/7 activity, the rhodamine 110 leaving group became intensely fluorescent with excitation at 499 nm and an emission maximum at 512 nm. The excitation/emission was recorded on a FlexStation (Molecular Devices, Sunnyvale, Calif.) with softMax Pro version 4.8 software. The experiment was conducted in duplicate. Statistical significance was determined by a two-tailed Students t-test, using GraphPad Prism software version 5.0.

COc1cc(/C=C/C(=O)CC(=O)/C=C/c2ccc(O)c(OC)c2)ccc1O [Curcumin, diferuloylmethane]
bioavailability ([1]; oral administration): poor bioavailability | patients with clinical biological activity ([1]; oral, advanced pancreatic cancer): 2 of 21 | inhibition of proliferation of pancreatic cancer cells ([2]; 24 hours, MTT, FIGS. 2(A)-2(C)): inhibited the proliferation of pancreatic cancer cells

CC(C)C[C@H](NC(=O)CNC(=O)[C@H](Cc1ccc(O)cc1)NC(=O)[C@H](CO)NC(=O)[C@H](Cc1c[nH]c2ccccc12)NC(=O)[C@H](Cc1c[nH]cn1)NC(=O)[C@@H]1CCC(=O)N1)C(=O)N[C@@H](CCCNC(=N)N)C(=O)N1CCC[C@H]1C(=O)NCC(=O)N[C@@H](CCCCN)C(=O)N[C@@H](Cc1ccccc1)C(=O)N[C@@H](C)C(=O)N[C@@H](CCCCN)C(=O)N[C@@H](Cc1ccccc1)C(=O)N[C@@H](C)C(=O)N[C@@H](CCCCN)C(=O)N[C@@H](CCCCN)C(=O)N[C@@H](Cc1ccccc1)C(=O)N[C@@H](C)C(=O)N[C@@H](CCCCN)C(=O)N[C@@H](Cc1ccccc1)C(=O)N[C@@H](C)C(=O)N[C@@H](CCCCN)C(=O)N[C@@H](CCCCN)C(=O)N[C@@H](Cc1ccccc1)C(=O)N[C@@H](C)C(=O)N[C@@H](CCCCN)C(=O)N[C@@H](Cc1ccccc1)C(=O)N[C@@H](C)C(=O)N[C@@H](CCCCN)C(=O)O [LHRH-Phor21] ([pGlu]HWSYGLRPGKFAKFAKKFAKFAKKFAKFAK-OH; C-terminus assumed)
mice body weights as indicators of potential toxicity ([3]; FIG. 5(D)): not significantly different from control | side effects ([3]; tail vein injections): some inflammation was seen in the mice tails at the site of injections | relative cytotoxicity [2]: greater cytotoxicity than that of LHRH-Curcumin

pGlu-His-Trp-Ser-Tyr-Gly-Leu-Arg-Pro-Gly [LHRH]
caspase-3/7 activity (caspase-3/7): significantly increased
